According to ChEMBL document CHEMBL1201862, “PubChem BioAssay data set” (2004):
The source made the active and inactive calls.

Experiments:
Hexokinase HKDC1 = Hexokinase HKDC1 (Homo sapiens, UniProt Q2TB90); assay: analog inhibition of human HKDC1 activity – biochemical, set 2, SAR follow-up (AID 588355); type: functional
Hexokinase-1 = Hexokinase-1 (Homo sapiens, UniProt P19367); assay: hexokinase 1 activity inhibitors, potency – biochemical, set 2, resazurin fluorescence coupled readout, selectivity assay for HKDC1 inhibitor project, SAR follow-up (AID 588356); type: functional
[1] = HEK-293T viability loss, compound-treated – cell-based, uHTS hits, cytotoxicity control for B/T-cell NF-kB inhibitor project, dose response (AID 489019); type: functional;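 further: IC50 reflects cytotoxicity as loss of cell viability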
cells = type: functional, cell-based; details: HEK-CNG
[2] = luciferase reporter signal suppression in cells – H4 neuroglioma cells, luminescence, dose response (AID 1990); type: functional, cell-based
[3] = Luminescence Cell-Based Dose Response HTS to Identify Inhibitors of 5'UTR Stem-Loop Driven Prion Protein mRNA Translation in H4 Neuroglioblastoma Cells. [Related pubchem assays: 1827 (Project Summary), 1813 (Primary HTS)]; type: functional
[4] = NIH-3T3 fibroblast cytotoxicity, dose response, cytotoxicity control, cell-based, fluorescence, Alamar Blue, secondary assay (AID 2327); type: functional;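 further: NIH-3T3 mouse fibroblasts cultured with fluconazole at 8 µg/mL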
[5] = loss of viability in HepG2 cells – cell-based, CellTiter-Glo, cherry-picked, cytotoxicity control for Shn3 inhibitor project, dose response (AID 624134); type: functional
[6] = fluconazole-exposed Candida albicans growth modulators – fluorescence, retest, confirmation (AID 2467); type: functional, cell-based
[7] = reduction of Shn3 3'UTR-driven luciferase in osteoblasts – cell-based, Clone20 osteoblasts, firefly luciferase, cherry-picked, dose response (AID 624132); type: functional;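 further: firefly luciferase luminescence from reporter carrying the Shn3 3'UTR in osteoblasts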
[8] = non-specific 3'UTR reporter inhibition in Clone20-Shn3RL – cell-based, Renilla luciferase, cherry-picked, counter-screen for Shn3 inhibitor project, dose response (AID 624133); type: functional
Galanin receptor type 3 = molecular target: T1, Galanin receptor type 3 (Homo sapiens, UniProt O60755); assay: Fluorescence-based cell-based primary high throughput dose response assay to identify antagonists of the Galanin Receptor 3 (GalR3).; type: functional
T1 sequence (O60755 whole entry): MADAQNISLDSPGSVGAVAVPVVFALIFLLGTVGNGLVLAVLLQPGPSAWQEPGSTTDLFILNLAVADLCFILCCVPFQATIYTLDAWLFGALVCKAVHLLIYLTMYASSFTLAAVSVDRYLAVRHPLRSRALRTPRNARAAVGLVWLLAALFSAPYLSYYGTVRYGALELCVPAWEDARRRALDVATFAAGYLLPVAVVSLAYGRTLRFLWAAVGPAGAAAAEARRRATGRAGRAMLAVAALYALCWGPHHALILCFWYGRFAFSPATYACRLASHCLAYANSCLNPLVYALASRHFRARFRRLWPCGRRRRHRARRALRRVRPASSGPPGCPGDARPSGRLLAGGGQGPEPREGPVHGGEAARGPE

[9] = alpha-synuclein stem-loop luciferase translation blockers – H4 neuroglioma cells, luminescence, confirmation (AID 1988); type: functional, cell-based
[10] = molecular target: ATP-dependent molecular chaperone HSP82 (Candida albicans (strain WO-1) (Yeast), UniProt C4YTQ8); assay: steroid-induced GRE reporter decrease in yeast – S. cerevisiae, luminescence, Hsp90 inhibitor project, dose response (AID 2400); type: functional, cell-based;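 further: beta-galactosidase luminescence from glucocorticoid response element reporter as proxy for Hsp90 function; inhibitor potency where signal loss means Hsp90 inhibition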
[11] = molecular target: T2, Serine/threonine-protein phosphatase (Candida dubliniensis (strain CD36 / CBS 7987 / NCPF 3949 / NRRLY-17841) (Yeast), UniProt B9W6M3); assay: blockers of CaCl2-induced CDRE-lacZ signaling – S. cerevisiae, luminescence, secondary, dose response (AID 2388); type: functional, cell-based;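 further: yeast reporter cells carrying a calcineurin-responsive lacZ construct stimulated with calcium chloride; luminescent beta-galactosidase reporter signal in whole cells rather than isolated phosphatase activity; potency for inhibition where a drop in reporter signal means calcineurin blockade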
T2 sequence (B9W6M3 whole entry): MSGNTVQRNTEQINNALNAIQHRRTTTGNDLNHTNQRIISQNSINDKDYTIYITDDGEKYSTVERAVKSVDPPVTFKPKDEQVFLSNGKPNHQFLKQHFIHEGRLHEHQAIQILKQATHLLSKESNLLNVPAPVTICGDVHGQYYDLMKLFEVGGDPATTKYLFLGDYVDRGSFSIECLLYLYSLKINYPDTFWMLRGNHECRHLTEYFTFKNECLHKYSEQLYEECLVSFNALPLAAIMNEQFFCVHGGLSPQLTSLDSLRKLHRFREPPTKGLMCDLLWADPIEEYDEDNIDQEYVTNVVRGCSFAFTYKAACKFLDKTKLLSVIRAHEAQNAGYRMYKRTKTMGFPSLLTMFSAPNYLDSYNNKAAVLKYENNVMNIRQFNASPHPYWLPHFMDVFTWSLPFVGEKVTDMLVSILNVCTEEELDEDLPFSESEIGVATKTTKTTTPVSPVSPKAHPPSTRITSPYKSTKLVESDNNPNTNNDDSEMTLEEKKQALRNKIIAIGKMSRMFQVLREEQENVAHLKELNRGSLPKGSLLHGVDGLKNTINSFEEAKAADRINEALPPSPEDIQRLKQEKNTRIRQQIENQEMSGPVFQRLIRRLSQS

Jurkat = assay: blockers of NF-kB activation in T cells – Jurkat, luciferase reporter, luminescence, B- and T-cell, dose response (AID 489004); type: functional, cell-based; details: Homo sapiens;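 further: NF-kB luciferase reporter Jurkat cells stimulated with PMA plus ionomycin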
INS1 = assay: INS-1E survival protection against cytokine death – cell-based, luminescence, retest, dose response (AID 449756); type: functional; details: Rattus norvegicus;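 further: cell death triggered by IL-1 beta plus TNF-alpha plus IFN-gamma mixture; protective hits raise ATP signal compared with cytokine alone wells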
[12] = molecular target: COUP transcription factor 2 (Homo sapiens, UniProt P24468); assay: Luminescence-based cell-based high throughput dose response assay to identify inhibitors of COUP-TFII (NR2F2).; type: functional;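 further: HEK293 cells transiently cotransfected with COUP-TFII expression vector and reporter; luciferase reporter luminescence driven by COUP-TFII from the pX2-168 reporter plasmid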
Cytochrome P450 1A2 = molecular target: T3, Cytochrome P450 1A2 (Homo sapiens, UniProt P05177);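 further: PubChem cytochrome P450 panel assay, CYP1A2 panel member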
T3 sequence (P05177 whole entry): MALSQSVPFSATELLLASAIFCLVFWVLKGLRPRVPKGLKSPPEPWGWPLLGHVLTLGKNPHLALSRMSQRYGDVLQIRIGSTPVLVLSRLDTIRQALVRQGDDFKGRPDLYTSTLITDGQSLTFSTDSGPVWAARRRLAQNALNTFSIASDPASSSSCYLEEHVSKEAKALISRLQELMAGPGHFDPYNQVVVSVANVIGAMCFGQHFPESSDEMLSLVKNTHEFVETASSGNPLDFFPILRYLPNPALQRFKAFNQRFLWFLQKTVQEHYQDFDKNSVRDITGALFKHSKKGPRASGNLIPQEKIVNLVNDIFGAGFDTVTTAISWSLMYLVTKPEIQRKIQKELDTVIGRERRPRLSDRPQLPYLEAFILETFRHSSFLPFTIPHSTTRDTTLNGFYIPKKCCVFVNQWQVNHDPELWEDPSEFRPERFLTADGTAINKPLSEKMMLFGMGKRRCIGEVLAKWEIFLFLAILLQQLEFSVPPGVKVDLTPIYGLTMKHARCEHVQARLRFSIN

Vero [13] = assay: cells; type: functional, cell-based; details: Chlorocebus sabaeus
Mu-type opioid receptor = Mu-type opioid receptor (Homo sapiens, UniProt P35372); assay: (§1) Counterscreen for agonists of heterodimerization of the mu 1 (OPRM1) and delta 1 (OPRD1) opioid receptors: Luminescence-based cell-based high throughput dose response assay to identify agonists of OPRM1 homodimerization.; type: functional
[14] = molecular target: Delta-type opioid receptor (Homo sapiens, UniProt P41143); assay: as §1, with “of OPRD1” for “of OPRM1”, “homodimerization. [Related pubchem assays (depositor defined):AID504326, AID504355, AID504692, AID504904, AID504905]” for “homodimerization.”; type: functional
[15] = molecular target: 5-hydroxytryptamine receptor 5A (Homo sapiens, UniProt P47898); assay: Counterscreen for agonists of OPRM1-OPRD1 heterodimerization: luminescence-based cell-based high throughput dose response assay to identify agonists of 5-hydroxytryptamine (serotonin) 5A receptor (HTR5A). [Related pubchem assays (depositor defined):AID504326, AID504355, AID504692, AID504904, AID504905]; type: functional
[16] = molecular target: Opioid receptors; mu & delta (Homo sapiens, UniProt P41143+P35372); assay: OPRM1-OPRD1 heterodimer agonist potency – cell-based, luminescence, dose response (AID 588407); type: functional
Vero [17] = assay: cells; type: functional; details: Chlorocebus sabaeus

Sequence of Hexokinase-1 (P19367 whole entry): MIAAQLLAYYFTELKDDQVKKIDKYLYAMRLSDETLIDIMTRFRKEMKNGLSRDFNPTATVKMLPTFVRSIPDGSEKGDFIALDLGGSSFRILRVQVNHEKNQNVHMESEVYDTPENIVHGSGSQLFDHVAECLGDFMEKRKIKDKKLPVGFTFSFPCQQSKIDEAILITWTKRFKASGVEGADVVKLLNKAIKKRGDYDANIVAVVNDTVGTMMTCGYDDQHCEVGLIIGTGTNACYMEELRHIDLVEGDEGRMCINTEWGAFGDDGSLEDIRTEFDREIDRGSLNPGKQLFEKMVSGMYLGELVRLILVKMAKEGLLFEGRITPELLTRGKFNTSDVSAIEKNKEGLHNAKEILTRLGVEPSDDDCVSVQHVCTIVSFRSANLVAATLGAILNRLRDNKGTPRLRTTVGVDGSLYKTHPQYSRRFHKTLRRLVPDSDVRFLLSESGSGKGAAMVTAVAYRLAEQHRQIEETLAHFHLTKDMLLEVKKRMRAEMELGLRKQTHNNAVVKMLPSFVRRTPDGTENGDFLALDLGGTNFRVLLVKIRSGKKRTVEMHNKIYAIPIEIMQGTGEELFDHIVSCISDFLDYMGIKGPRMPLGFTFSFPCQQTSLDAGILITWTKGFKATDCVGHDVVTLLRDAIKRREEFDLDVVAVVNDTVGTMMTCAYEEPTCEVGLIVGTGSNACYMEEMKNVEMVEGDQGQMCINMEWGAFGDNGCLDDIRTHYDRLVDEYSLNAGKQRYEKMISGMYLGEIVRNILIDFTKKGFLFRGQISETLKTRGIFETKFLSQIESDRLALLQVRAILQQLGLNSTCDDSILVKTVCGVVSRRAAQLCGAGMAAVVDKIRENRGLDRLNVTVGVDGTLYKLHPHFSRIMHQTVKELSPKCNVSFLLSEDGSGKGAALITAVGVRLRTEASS
Sequence of Delta-type opioid receptor (P41143 whole entry): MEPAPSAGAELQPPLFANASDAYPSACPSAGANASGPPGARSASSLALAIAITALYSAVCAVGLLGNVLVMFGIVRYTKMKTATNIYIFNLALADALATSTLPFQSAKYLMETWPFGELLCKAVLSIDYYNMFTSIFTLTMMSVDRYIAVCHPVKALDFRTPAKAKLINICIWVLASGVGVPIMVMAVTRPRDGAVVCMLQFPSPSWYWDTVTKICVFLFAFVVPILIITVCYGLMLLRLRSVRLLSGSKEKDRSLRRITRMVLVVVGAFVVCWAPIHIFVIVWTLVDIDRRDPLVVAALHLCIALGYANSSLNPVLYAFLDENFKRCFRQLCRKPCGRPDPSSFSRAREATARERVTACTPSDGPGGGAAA
Sequence of Mu-type opioid receptor (P35372 whole entry): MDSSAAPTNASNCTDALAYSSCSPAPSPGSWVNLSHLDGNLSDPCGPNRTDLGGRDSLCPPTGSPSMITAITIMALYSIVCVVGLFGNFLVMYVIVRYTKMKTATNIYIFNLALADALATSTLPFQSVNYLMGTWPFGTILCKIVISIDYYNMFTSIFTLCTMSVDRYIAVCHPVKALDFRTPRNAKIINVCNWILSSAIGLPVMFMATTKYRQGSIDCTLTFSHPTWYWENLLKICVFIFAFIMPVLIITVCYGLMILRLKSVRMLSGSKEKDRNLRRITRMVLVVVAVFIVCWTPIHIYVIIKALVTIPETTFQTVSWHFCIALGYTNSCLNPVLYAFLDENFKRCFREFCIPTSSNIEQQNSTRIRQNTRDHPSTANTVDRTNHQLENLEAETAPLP
Sequence of COUP transcription factor 2 (P24468 whole entry): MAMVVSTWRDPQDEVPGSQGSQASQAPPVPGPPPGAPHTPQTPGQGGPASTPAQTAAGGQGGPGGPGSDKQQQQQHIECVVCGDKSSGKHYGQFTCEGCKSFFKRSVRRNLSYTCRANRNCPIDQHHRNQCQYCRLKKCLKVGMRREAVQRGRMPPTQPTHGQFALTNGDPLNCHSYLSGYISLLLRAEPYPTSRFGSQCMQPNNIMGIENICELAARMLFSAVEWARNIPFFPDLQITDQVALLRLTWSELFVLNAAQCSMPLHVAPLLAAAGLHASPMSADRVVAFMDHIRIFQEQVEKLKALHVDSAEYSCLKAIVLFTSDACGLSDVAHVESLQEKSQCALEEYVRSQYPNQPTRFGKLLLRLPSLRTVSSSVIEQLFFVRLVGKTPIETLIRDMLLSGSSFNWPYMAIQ
Sequence of ATP-dependent molecular chaperone HSP82 (C4YTQ8 whole entry): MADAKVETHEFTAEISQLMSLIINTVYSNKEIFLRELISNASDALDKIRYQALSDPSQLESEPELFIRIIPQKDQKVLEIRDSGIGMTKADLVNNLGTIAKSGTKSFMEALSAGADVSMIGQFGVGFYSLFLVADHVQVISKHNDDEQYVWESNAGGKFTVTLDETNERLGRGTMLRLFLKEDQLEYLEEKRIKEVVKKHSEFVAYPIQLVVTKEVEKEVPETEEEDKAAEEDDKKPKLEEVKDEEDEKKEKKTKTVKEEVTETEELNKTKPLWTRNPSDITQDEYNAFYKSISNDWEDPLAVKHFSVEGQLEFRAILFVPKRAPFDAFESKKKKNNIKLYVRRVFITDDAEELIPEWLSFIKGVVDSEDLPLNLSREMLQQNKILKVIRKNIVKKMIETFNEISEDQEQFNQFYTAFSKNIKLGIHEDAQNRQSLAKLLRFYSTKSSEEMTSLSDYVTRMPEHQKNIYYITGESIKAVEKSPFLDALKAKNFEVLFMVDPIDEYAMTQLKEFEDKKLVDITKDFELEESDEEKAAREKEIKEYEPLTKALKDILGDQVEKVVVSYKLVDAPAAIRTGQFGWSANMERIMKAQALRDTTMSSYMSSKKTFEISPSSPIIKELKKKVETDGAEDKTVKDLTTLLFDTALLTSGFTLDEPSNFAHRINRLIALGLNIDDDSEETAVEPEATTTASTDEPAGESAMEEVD
Sequence of Hexokinase HKDC1 (Q2TB90 whole entry): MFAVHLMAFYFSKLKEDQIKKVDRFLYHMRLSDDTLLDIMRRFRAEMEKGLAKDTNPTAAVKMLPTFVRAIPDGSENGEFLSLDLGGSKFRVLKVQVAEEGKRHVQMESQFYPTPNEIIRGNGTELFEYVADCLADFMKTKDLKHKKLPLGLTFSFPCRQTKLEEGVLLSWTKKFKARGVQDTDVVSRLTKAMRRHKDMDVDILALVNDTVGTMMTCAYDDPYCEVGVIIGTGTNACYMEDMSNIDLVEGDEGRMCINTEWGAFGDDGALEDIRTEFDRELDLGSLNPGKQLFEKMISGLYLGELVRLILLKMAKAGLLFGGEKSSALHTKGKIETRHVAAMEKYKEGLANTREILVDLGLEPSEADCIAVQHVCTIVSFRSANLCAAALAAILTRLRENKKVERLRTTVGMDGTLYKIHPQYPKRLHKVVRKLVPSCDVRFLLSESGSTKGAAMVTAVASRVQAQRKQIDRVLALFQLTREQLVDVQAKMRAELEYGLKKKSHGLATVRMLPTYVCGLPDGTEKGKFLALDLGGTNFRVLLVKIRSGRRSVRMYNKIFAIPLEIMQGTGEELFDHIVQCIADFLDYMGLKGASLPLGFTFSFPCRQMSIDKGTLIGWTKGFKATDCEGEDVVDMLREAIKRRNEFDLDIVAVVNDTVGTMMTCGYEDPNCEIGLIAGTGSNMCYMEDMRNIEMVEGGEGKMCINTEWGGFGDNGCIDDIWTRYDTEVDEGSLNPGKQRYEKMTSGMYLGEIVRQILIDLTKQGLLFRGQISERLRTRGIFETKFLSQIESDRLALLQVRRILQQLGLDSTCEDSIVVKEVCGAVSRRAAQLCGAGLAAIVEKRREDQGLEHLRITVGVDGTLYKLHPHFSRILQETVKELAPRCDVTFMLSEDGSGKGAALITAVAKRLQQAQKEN
Sequence of 5-hydroxytryptamine receptor 5A (P47898 whole entry): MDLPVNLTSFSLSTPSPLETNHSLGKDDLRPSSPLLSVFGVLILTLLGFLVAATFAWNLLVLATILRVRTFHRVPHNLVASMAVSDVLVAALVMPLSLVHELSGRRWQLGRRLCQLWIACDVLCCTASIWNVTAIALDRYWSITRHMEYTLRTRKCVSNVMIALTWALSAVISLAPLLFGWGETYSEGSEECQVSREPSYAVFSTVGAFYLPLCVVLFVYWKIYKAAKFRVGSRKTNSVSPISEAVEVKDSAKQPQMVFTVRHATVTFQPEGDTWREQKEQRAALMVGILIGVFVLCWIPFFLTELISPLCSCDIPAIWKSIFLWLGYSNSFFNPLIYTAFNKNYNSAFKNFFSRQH

CCOc1ccc(N2C(=O)c3cccnc3C2Nc2ccc(C)c(C)c2)cc1 (stereo not given)
IC50 (Hexokinase HKDC1): 77.1 µM (inactive) | IC50 (Hexokinase-1): > 80 µM (inactive)

COc1ccc(CCNc2ncnc3sc(C)cc23)cc1OC
IC50 [1]: > 80 µM (inactive) | EC50 (cells): > 29.9 µM (inactive) | EC50 [2]: > 120 µM (not active) | EC50 [3]: > 120 µM (not active) | EC50 [4]: > 150 µM (inactive) | AC50 [5]: 0.739 µM (active) | EC50 [6]: 0.767 µM (active) | AC50 [7]: < 0.26 µM (active) | AC50 [8]: 0.796 µM (active) | IC50 (Galanin receptor type 3): 0.43 µM (active) | EC50 [9]: > 120 µM (not active) | EC50 [10]: > 150 µM (inactive) | EC50 [11]: > 180 µM (inactive) | IC50 (Jurkat): 45.3 µM (inactive) | AC50 (INS1): 0.902 µM (active) | IC50 [12]: 2.21 µM (active)

Nc1ncnc2c1ncn2[C@H]1O[C@@H](C(=O)OCCO)[C@@H](O)[C@H]1O
AC50 (Cytochrome P450 1A2): inconclusive

CO[C@H]1[C@H](O)[C@H](O[C@H]2CC[C@@]3(C=O)[C@H](CC[C@@H]4[C@@H]3CC[C@]3(C)[C@@H](C5=CC(=O)OC5)CC[C@]43O)C2)O[C@@H](C)[C@@H]1O [PERUVOSIDE]
IC50 (Vero [13]): < 0.05 µM (active) | EC50 (Mu-type opioid receptor): > 92.5 µM (inactive) | EC50 [14]: > 92.5 µM (inactive) | EC50 [15]: > 92.5 µM (inactive) | EC50 [16]: > 0.1268 µM | CC50 (Vero [17]): < 0.05 µM (active)
